Test results taken from US12570639B2, “Tetrahydroquinoline derivative and medicinal use thereof” (Toray Industries, Inc., priority 2020, dated 2026).
Structures can show the parent of a compound that is named as a salt.

What was measured:
[1] = In vitro radical scavenging action (DPPH method); conditions: 30 minutes at room temperature, maximum concentration 100 μmol/L
Protocol: Radical scavenging action was evaluated using the DPPH method in the compound of Comparative Example 1, which is a tetrahydroquinoxaline derivative, and in the tetrahydroquinoline derivative (I) or a pharmaceutically acceptable salt thereof. The DPPH method was performed using an antioxidant capacity measurement kit (Dojindo Laboratories).
A test compound was dissolved in DMSO, and the resulting solution was then mixed with an assay buffer and a DPPH solution, which are included in the kit, to a total volume of 200 μL to obtain a final concentration of 10% DMSO, and the reaction was allowed to proceed. Wells added with 100 μmol/L ferrostatin-1, a radical scavenger, were grouped as “control,” and wells added with not test compound were grouped as “background.” The test compound was serially diluted 3-fold starting from a maximum concentration of 100 μmol/L, and the diluted test compound (1.2, 3.7, 11.1, 33.3, or 100 μmol/L) was added and allowed to react at room temperature. Thirty minutes after the reaction, the absorbance at 517 nm was measured, and the average absorbance value was calculated (N=2). The radical scavenging action of the test compound (hereinafter referred to as radical scavenging rate, %) was calculated based on the equation 2 below. The EC50 value of the test compound was calculated from the radical scavenging rate. Radical scavenging rate (%)=[1−{(Average absorbance value at 517 nm measured when a test compound is added)−(Average absorbance value at 517 nm measured in the background)}/{(Average absorbance value at 517 nm measured in the control)−(Average absorbance value at 517 nm measured in the background)}]×100 Equation 2
A note “no detection of radical scavenging action (N.D.),” is given to compounds with a EC50 of >100 μmol/L.

[2] = test system: Human fibrosarcoma cells (HT-1080 cells); test: In vitro inhibitory action against ferroptosis (Erastin-induced cell death, Cell Counting Kit-8); assay type: cell-based; conditions: Erastin 3 μmol/L, 24 hours
[3] = evaluation concentration 50 μmol/L
[4] = evaluation concentration 30 μmol/L
[5] = evaluation concentration 10 μmol/L

Row | SMILES | EC50 [1] | Ferroptosis inhibition rate (%) [2, 3] | Ferroptosis inhibition rate (%) [2, 4] | Ferroptosis inhibition rate (%) [2, 5] | Ferroptosis inhibition rate (%) ([2]; evaluation concentration 30 μmol/L, hydrochloride)
1 | NS(=O)(=O)c1ccc(C2CCc3cc(F)ccc3N2)cc1 (stereo not drawn) [Example 107, 4-(6-fluoro-1,2,3,4-tetrahydroquinolin-2-yl)benzenesulfonamide] | > 100 µM | – | 100.8% | – | –
2 | NS(=O)(=O)c1ccc(C2CCc3cc(F)ccc3N2)cc1 (stereo not drawn) [Example 109, 4-(6-fluoro-1,2,3,4-tetrahydro-quinolin-2-yl)benzenesulfonamide] | > 100 µM | – | – | 83.63% | –
3 | Cc1cccc2c1CCC(c1ccc(S(N)(=O)=O)cc1)N2 (stereo not drawn) [Example 112, 4-(5-methyl-1,2,3,4-tetrahydroquinolin-2-yl)benzenesulfonamide] | > 100 µM | – | 105.5% | – | –
4 | NS(=O)(=O)c1ccc(C2CCc3cc(Cl)ccc3N2)cc1 (stereo not drawn) [Example 115, 4-(6-chloro-1,2,3,4-tetrahydroquinolin-2-yl)benzenesulfonamide] | > 100 µM | – | 105.8% | – | –
5 | NS(=O)(=O)c1ccc(C2CCc3cc(Cl)ccc3N2)cc1 (stereo not drawn) [Example 116, 4-(6-chloro-1,2,3,4-tetrahydro-quinolin-2-yl)benzenesulfonamide] | > 100 µM | – | – | 80.69% | –
6 | NS(=O)(=O)c1ccc(C2CCc3ccc(F)cc3N2)cc1 (stereo not drawn) [Example 118, 4-(7-fluoro-1,2,3,4-tetrahydroquinolin-2-yl)benzenesulfonamide] | > 100 µM | – | 95.28% | – | –
7 | Cc1ccc2c(c1)CCC(c1ccc(S(N)(=O)=O)cc1)N2 (stereo not drawn) [Example 120, 4-(6-methyl-1,2,3,4-tetrahydroquinolin-2-yl)benzenesulfonamide] | > 100 µM | – | – | 87.34% | –
8 | NC(=O)c1ccc(C2CCc3cc(Cl)ccc3N2)cc1 (stereo not drawn) [Example 121, 4-(6-chloro-1,2,3,4-tetrahydroquinolin-2-yl)benzamide] | > 100 µM | – | – | 92.10% | –
9 | NC(=O)c1ccc(C2CCc3cc(Cl)ccc3N2)cc1 (stereo not drawn) [Example 122, 4-(6-chloro-1,2,3,4-tetrahydroquinolin-2-yl)benzamide] | > 100 µM | – | – | 97.59% | –
10 | NC(=O)c1ccc(C2CCc3cc(Cl)ccc3N2)cc1 (stereo not drawn) [Example 131, 4-(6-chloro-1,2,3,4-tetrahydroquinolin-2-yl)benzamide] | > 100 µM | – | 102.5% | – | –
11 | NC(=O)c1ccc(C2CCc3cc(F)ccc3N2)cc1 (stereo not drawn) [Example 132, 4-(6-fluoro-1,2,3,4-tetrahydroquinolin-2-yl)benzamide] | > 100 µM | – | 105.6% | – | –
12 | NS(=O)(=O)c1ccc(C2CCc3c(Cl)cccc3N2)cc1 (stereo not drawn) [Example 134, 4-(5-chloro-1,2,3,4-tetrahydroquinolin-2-yl)benzenesulfonamide] | > 100 µM | – | 77.77% | – | –
13 | NS(=O)(=O)c1ccc(C2CCc3c(F)cccc3N2)cc1 (stereo not drawn) [Example 135, 4-(5-fluoro-1,2,3,4-tetrahydroquinolin-2-yl)benzenesulfonamide] | > 100 µM | – | 62.32% | – | –
14 | CS(=O)(=O)Nc1ccc(C2CCc3ccccc3N2)cc1 (stereo not drawn) [Example 136, N-(4-(1,2,3,4-tetrahydroquinolin-2-yl)phenyl)methanesulfonamide] | > 100 µM | – | 75.50% | – | –
15 | NC(=O)c1ccc(C2CCc3c(F)cccc3N2)cc1 (stereo not drawn) [Example 137, 4-(5-fluoro-1,2,3,4-tetrahydroquinolin-2-yl)benzamide] | > 100 µM | – | 93.06% | – | –
16 | NC(=O)c1ccc(C2CCc3c(Cl)cccc3N2)cc1 (stereo not drawn) [Example 138, 4-(5-chloro-1,2,3,4-tetrahydroquinolin-2-yl)benzamide] | > 100 µM | – | 65.15% | – | –
17 | O=C(Cc1ccc2c(c1)CCC(c1ccccc1)N2)N1CC(O)C1 (stereo not drawn) [Example 143, 1-(3-hydroxyazetidin-1-yl)-2-(2-phenyl-1,2,3,4-tetrahydroquinolin-6-yl)ethan-1-one hydrochloride] | > 100 µM | – | – | – | 93.97%
18 | O=C(Cc1ccc2c(c1)CCC(c1ccccc1)N2)N1CCOCC1 (stereo not drawn) [Example 145, 1-morpholino-2-(2-phenyl-1,2,3,4-tetrahydroquinolin-6-yl)ethan-1-one] | > 100 µM | – | 102.0% | – | –
19 | CC1(C)CN(C(=O)Cc2ccc3c(c2)CCC(c2ccccc2)N3)C1 (stereo not drawn) [Example 146, 1-(3,3-dimethylazetidin-1-yl)-2-(2-phenyl-1,2,3,4-tetrahy-dro-quin-olin-6-yl)ethan-1-one] | > 100 µM | – | 112.8% | – | –
20 | COC1CN(C(=O)Cc2ccc3c(c2)CCC(c2ccccc2)N3)C1 (stereo not drawn) [Example 147, 1-(3-methoxyazetidin-1-yl)-2-(2-phenyl-1,2,3,4-tetrahydroquinolin-6-yl)ethan-1-one] | > 100 µM | – | 93.00% | – | –

Now from value to compound, other results behind:

Row | EC50 [1] | SMILES | Ferroptosis inhibition rate (%) [2, 3] | Ferroptosis inhibition rate (%) [2, 4] | Ferroptosis inhibition rate (%) [2, 5] | Ferroptosis inhibition rate (%) ([2]; evaluation concentration 30 μmol/L, hydrochloride)
21 | > 100 µM | FC(F)(F)Oc1ccc(C2CCc3ccccc3N2)cc1 (stereo not drawn) [Example 31, 2-(4-(trifluoromethoxy)phenyl)-1,2,3,4-tetrahydroquinoline] | 98.99% | – | – | –
22 | > 100 µM | NS(=O)(=O)c1ccc(C2CCc3ccccc3N2)cc1 (stereo not drawn) [Example 34, 4-(1,2,3,4-tetrahydroquinolin-2-yl)benzenesulfonamide] | – | 86.96% | – | –
23 | > 100 µM | N#Cc1ccc(C2CCc3ccccc3N2)cc1 (stereo not drawn) [Example 35, 4-(1,2,3,4-tetrahydroquinolin-2-yl)benzonitrile] | – | 106.5% | – | –
24 | > 100 µM | NC(=O)c1ccc(C2CCc3ccccc3N2)cc1 (stereo not drawn) [Example 37, 4-(1,2,3,4-tetrahydroquinolin-2-yl)benzamide] | – | 98.69% | – | –
25 | > 100 µM | OCc1ccc2c(c1)CCC(c1ccccc1)N2 (stereo not drawn) [Example 58, (2-phenyl-1,2,3,4-tetrahydroquinolin-6-yl)methanol] | – | 91.37% | – | –
26 | > 100 µM | NC(=O)Cc1ccc2c(c1)CCC(c1ccccc1)N2 (stereo not drawn) [Example 60, 2-(2-phenyl-1,2,3,4-tetrahydroquinolin-6-yl)acetamide] | – | 98.74% | – | –
27 | > 100 µM | CC(C)(C)NC(=O)Cc1ccc2c(c1)CCC(c1ccccc1)N2 (stereo not drawn) [Example 61, N-(tert-butyl)-2-(2-phenyl-1,2,3,4-tetrahydroquinolin-6-yl)acetamide] | – | 103.9% | – | –
28 | > 100 µM | O=C(Cc1ccc2c(c1)CCC(c1ccccc1)N2)N1CC(O)C1 (stereo not drawn) [Example 62, 1-(3-hydroxyazetidin-1-yl)-2-(2-phenyl-1,2,3,4-tetrahydroquinolin-6-yl)ethan-1-one] | – | 103.2% | – | –
29 | > 100 µM | Fc1cccc2c1CCC(c1ccccc1)N2 (stereo not drawn) [Example 66, 5-fluoro-2-phenyl-1,2,3,4-tetrahydroquinoline] | – | 101.5% | – | –
30 | > 100 µM | Clc1cccc2c1CCC(c1ccccc1)N2 (stereo not drawn) [Example 67, 5-chloro-2-phenyl-1,2,3,4-tetrahydroquinoline] | – | 102.4% | – | –
31 | > 100 µM | Fc1ccc2c(c1)NC(c1ccccc1)CC2 (stereo not drawn) [Example 68, 7-fluoro-2-phenyl-1,2,3,4-tetrahydroquinoline] | – | 101.9% | – | –
32 | > 100 µM | Clc1ccc2c(c1)NC(c1ccccc1)CC2 (stereo not drawn) [Example 69, 7-chloro-2-phenyl-1,2,3,4-tetrahydroquinoline] | – | 106.4% | – | –
33 | > 100 µM | FC(F)(F)Oc1ccc2c(c1)CCC(c1ccccc1)N2 (stereo not drawn) [Example 81, 2-phenyl-6-(trifluoromethoxy)-1,2,3,4-tetrahydroquinoline] | 103.9% | – | – | –
34 | > 100 µM | Fc1ccc2c(c1)CCC(c1ccccc1)N2 (stereo not drawn) [Example 82, 6-fluoro-2-phenyl-1,2,3,4-tetrahydroquinoline] | – | 112.6% | – | –
35 | > 100 µM | Clc1ccc2c(c1)CCC(c1ccccc1)N2 (stereo not drawn) [Example 83, 6-chloro-2-phenyl-1,2,3,4-tetrahydroquinoline] | 103.8% | – | – | –
36 | > 100 µM | Fc1cc2c(cc1F)NC(c1ccccc1)CC2 (stereo not drawn) [Example 85, 6,7-difluoro-2-phenyl-1,2,3,4-tetrahydroquinoline] | 94.94% | – | – | –
37 | > 100 µM | Cc1ccc2c(c1)CCC(c1ccc(C(N)=O)cc1)N2 (stereo not drawn) [Example 99, 4-(6-methyl-1,2,3,4-tetrahydroquinolin-2-yl)benzamide] | – | 98.85% | – | –
38 | > 100 µM | Cc1ccc2c(c1)NC(c1ccc(S(N)(=O)=O)cc1)CC2 (stereo not drawn) [Example 105, 4-(7-methyl-1,2,3,4-tetrahydroquinolin-2-yl)benzenesulfonamide] | – | 99.03% | – | –
39 | > 100 µM | Cc1ccc2c(c1)NC(c1ccc(C(N)=O)cc1)CC2 (stereo not drawn) [Example 106, 4-(7-methyl-1,2,3,4-tetrahydroquinolin-2-yl)benzamide] | – | 111.7% | – | –
